Patent publication US20250188457A1, “COMPOSITIONS AND METHODS FOR THE TREATMENT OF GLIOBLASTOMA BY INHIBITION OF THE TFPI2-CD51-STAT6 SIGNALING AXIS” (Northwestern University, priority 2023, published 2025)

B1: TFPI2 recombinant protein (tissue factor pathway inhibitor 2; BioVision, #7481-10) (ligand, UniProt P48307 23-235, looked up)
chain: DAAQEPTGNNAEICLLPLDYGPCRALLLRYYYDRYTQSCRQFLYGGCEGNANNFYTWEACDDACWRIEKVPKVCRLQVSVDDQCEGSTEKYFFNLSSMTCEKFFSGGCHRNRIENRFPDEATCMGFCAPKKIPSFCYSPKDEGLCSANVTRYYFNPRYRTCDAFTYTGCGGNDNNFVSREDCKRACAKALKKKKKMPKLRFASRIRKIRKKQF
notes: Bought recombinant protein added to microglia at 20 ng/ml; also called recombinant TFPI2; secreted TFPI2

Assays:
[1] = test system: JURKAT T cells cocultured with PrhMG; assay: Human microglia-T cell co-culture, flow cytometry; type: cell-based; conditions: TFPI2 recombinant protein 20 ng/ml; AS1517499 25 nM
Experimental: For membrane protein staining, the single-cell suspensions were washed with PBS and then incubated with fixable viability dye (Invitrogen, #5211229035) on ice for 10 min. Following washing with PBS, cells were incubated with the anti-CD16/CD32 cocktail (BioLegend, #103132) in 2% BSA PBS to block Fc receptors for 30 min on ice. Different antibody combinations, including Percp/Cy5.5 anti-mouse CD45 (BioLegend, #103132), AF488 anti-mouse CD3 (BioLegend, #100210), BV421 anti-mouse CX3CR1 (BD Bioscience, #567531), BUV395 anti-mouse CD4 (BD Bioscience, #740208), BV711 anti-mouse CD8 (BioLegend, #100747), PE/Cy7 anti-mouse/human CD11b (BioLegend, #101216), PE anti-mouse CD68 (BD Bioscience, #566386), PE anti-mouse PD1 (BioLegend, #135205), AF647 anti-mouse CD206 (BD Bioscience, #565250), AF647 anti-human CD206 (BioLegend, #321116), PE anti-human CD69 (BioLegend, #310906), PE/Cy7 anti-mouse CD69 (BioLegend, #104512), and BV650 anti-human HLA-DR (BioLegend, #307650) were added to cell suspensions for 30 min on ice. […] Samples were read in BD FACSymphony flow cytometer and analyzed in FlowJo v10.8.1. […] Then cell suspensions were rewashed in permeabilization buffer and read in BD FACSymphony flow cytometer.

[2] = test system: mouse primary CD8+ T cells cocultured with SIM-A9 microglia; assay: Mouse microglia and CD8+ T cell co-culture, flow cytometry; type: cell-based; conditions: TFPI2 recombinant protein 20 ng/ml; AS1517499 25 nM
Experimental: Primary mouse CD8^+ T cells were isolated from the spleens of C57BL/6 mice using a CD8^+ T cell isolation kit (Miltenyi Biotec, #130-104-075) according to manufacturer's instructions. Isolated CD8^+ T cells were cultured in RPMI 1640 media (Gibco, #22400-089) containing 10% FBS, 50 μM 2-Mercaptoethanol (Sigma, #M7522), and 1:100 antibiotic-antimycotic. Then, primary mouse CD8^+ T cells were expanded by 30 U/ml mouse IL-2 (Miltenyi Biotec, #130-120-662) and activated by Dynabeads® mouse T-activator CD3/CD28 (Gibco, #11456D) at bead-to-cell ratio of 1:1 before analysis and co-culture studies. For membrane protein staining, the single-cell suspensions were washed with PBS and then incubated with fixable viability dye (Invitrogen, #5211229035) on ice for 10 min. Following washing with PBS, cells were incubated with the anti-CD16/CD32 cocktail (BioLegend, #103132) in 2% BSA PBS to block Fc receptors for 30 min on ice. […] Samples were read in BD FACSymphony flow cytometer and analyzed in FlowJo v10.8.1. […] Then cell suspensions were rewashed in permeabilization buffer and read in BD FACSymphony flow cytometer.

CD51 = assay: Co-immunoprecipitation of TFPI2 and CD51 in microglia; type: binding, human and mouse; conditions: SIM-A9 and HMC3 microglia treated with 20 ng/ml TFPI2 recombinant protein for 1 hr; anti-CD51 or anti-TFPI2 antibody
Experimental: Co-IP was performed using Invitrogen™ Dynabeads™ Protein G Immunoprecipitation Kit (Thermo Fisher Scientific, #10007D). Briefly, human or mouse microglia were treated with 20 ng/ml TFPI2 recombinant protein for 1 hr. RIPA lysis buffer was then used to extract protein after washing with PBS. Magnetic beads (1.5 mg) were separated from the solution using a magnetic stand. […] TFPI2 antibody (Abcam, #ab186747), CD51 antibody (Cell Signaling Technology, #4711S), or rabbit IgG (isotype control, Cell Signaling Technology, #2729) was prepared in […] of antibody binding and washing Buffer. Antibody or IgG was incubated with magnetic beads for 10 min at room temperature with rotation. After removing the supernatant, antibody/IgG-conjugated magnetic beads were incubated with cell lysis buffer for 2 hrs at room temperature with rotation to immunoprecipitate TFPI2- or CD51-interacting antigens. The magnetic bead-antibody-antigen complex was washed three times using […] washing buffer and then eluted with the elution buffer. The complex was loaded into 4-12% SurePAGE gels to evaluate target protein expression after Co-IP.

Row | Molecule | suppression of JURKAT T cell viability and activation by TFPI2-polarized microglia [1] | decrease of CD8+ T cell viability by TFPI2-polarized microglia [2] | reduction of the percentage of CD8+CD69+ and CD8+IFNγ+ T cells by TFPI2-treated microglia [2] | interaction between CD51 and TFPI2 (CD51)
1 | NC(=O)c1cnc(NCCc2ccc(O)c(Cl)c2)nc1NCc1ccccc1 [AS1517499] | prevented | negated | prevented | 
2 | B1 |  |  |  | confirmed
